Experimental data reported in ChEMBL document CHEMBL1201862, “PubChem BioAssay data set” (2004).
Calls of active or inactive are those of the source.

Tests used:
Cytochrome P450 1A2 = molecular target: T1, Cytochrome P450 1A2 (Homo sapiens, UniProt P05177);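 further: PubChem cytochrome P450 panel assay, CYP1A2 panel member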
T1 sequence (P05177 whole entry): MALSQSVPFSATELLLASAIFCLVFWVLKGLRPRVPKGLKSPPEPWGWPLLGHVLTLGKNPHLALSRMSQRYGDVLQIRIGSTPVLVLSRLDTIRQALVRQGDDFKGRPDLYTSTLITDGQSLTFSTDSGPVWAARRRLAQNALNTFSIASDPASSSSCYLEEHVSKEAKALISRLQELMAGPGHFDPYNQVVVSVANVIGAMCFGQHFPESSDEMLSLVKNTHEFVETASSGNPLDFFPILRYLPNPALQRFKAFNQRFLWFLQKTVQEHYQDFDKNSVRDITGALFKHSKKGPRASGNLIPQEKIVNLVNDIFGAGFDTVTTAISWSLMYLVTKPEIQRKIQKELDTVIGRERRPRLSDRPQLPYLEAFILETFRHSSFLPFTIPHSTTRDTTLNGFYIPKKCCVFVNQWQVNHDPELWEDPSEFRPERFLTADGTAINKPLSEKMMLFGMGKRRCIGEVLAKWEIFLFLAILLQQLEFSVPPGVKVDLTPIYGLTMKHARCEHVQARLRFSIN

Cytochrome P450 2C9 = Cytochrome P450 2C9 (Homo sapiens, UniProt P11712)
Cytochrome P450 2C19 = Cytochrome P450 2C19 (Homo sapiens, UniProt P33261); experiment: Cytochrome panel assay with activity outcomes. Panel member name: p450-cyp2c19 Compounds with AC50 equal or less than 10 uM are considered active; format: functional; conditions: read-out: AC50
Protein RecA = molecular target: T2, Protein RecA (Mycobacterium tuberculosis, UniProt P9WHJ3); experiment: Fluorescence Cell-Free Homogeneous Dose Retest to Identify Inhibitors of RecA-Intein Splicing Activity. [Related pubchem assays (depositor defined):AID2097, AID2223, AID489010, AID492950]; format: functional
T2 sequence (P9WHJ3 whole entry): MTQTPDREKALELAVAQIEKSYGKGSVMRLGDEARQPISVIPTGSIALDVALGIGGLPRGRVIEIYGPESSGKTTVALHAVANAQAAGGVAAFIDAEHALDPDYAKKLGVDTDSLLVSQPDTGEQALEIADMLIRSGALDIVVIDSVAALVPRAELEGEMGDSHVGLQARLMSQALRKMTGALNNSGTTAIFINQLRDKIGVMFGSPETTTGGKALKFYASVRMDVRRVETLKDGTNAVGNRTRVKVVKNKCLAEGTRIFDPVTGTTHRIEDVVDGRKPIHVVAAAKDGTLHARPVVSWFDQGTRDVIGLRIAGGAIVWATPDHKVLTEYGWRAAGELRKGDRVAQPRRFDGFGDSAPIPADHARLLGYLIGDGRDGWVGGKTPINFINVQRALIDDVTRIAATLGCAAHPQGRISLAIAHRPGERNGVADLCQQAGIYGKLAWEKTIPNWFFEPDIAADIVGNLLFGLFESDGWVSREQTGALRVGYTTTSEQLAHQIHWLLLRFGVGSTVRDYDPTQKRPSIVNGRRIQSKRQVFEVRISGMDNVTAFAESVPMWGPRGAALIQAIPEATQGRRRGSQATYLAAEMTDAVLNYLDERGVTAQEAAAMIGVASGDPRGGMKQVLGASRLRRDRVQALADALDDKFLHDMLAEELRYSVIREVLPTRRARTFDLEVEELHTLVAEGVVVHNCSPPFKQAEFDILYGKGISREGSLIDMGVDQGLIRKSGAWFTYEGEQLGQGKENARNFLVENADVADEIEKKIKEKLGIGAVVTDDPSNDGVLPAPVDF

[1] = molecular target: T3, Replicative DNA helicase DnaB (Mycobacterium tuberculosis, UniProt P9WMR3); experiment: DnaB intein splicing inhibitors, dose response, biochemical, cell-free fluorescence (AID 449749); format: functional
T3 sequence (P9WMR3 whole entry): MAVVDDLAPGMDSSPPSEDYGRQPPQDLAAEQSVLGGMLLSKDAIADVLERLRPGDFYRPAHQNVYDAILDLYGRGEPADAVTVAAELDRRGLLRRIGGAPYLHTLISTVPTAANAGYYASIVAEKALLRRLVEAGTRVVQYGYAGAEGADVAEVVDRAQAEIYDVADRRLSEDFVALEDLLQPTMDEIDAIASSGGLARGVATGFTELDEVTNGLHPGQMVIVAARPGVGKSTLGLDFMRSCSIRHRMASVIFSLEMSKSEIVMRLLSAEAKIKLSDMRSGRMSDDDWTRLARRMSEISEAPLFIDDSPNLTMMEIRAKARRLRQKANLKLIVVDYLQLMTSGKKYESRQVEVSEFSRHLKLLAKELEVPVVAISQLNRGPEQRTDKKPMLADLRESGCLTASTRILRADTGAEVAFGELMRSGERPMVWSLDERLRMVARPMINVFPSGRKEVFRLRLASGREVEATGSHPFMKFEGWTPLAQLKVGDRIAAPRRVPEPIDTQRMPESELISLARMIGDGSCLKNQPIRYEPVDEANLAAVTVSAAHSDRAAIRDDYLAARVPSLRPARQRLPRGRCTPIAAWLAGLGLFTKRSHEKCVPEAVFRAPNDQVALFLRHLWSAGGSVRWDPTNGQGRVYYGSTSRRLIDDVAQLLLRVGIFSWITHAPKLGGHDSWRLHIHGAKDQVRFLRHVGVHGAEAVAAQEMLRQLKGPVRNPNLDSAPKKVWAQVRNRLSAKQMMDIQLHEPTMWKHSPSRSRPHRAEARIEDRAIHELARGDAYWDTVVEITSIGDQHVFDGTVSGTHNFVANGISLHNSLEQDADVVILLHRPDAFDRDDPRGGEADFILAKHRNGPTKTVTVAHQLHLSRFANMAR

[2] = growth suppression of PTEN-null colon cells, dose response, cell-based, HCT116 PTEN knockout (AID 1047); format: functional;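 further: HCT116 colon tumor cells with PTEN knocked out; cells exposed to compound for 60 hours before readout; potency for loss of cell viability measured by luminescence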
[3] = growth suppression of beta-catenin-knockout colon cells, dose response, cell-based, HCT116, human colon tumor (AID 1045); format: functional;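 further: HCT116 colon tumor cells with beta catenin knocked out; cells exposed to compound for 60 hours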
[4] = Luminescence Cell-Based Dose Response HTS to Identify Activators of Luciferase Translation or Activity in H4 […] Cells. [Related pubchem assays: 1829 (Project Summary), 1814 (Primary HTS)]; format: functional
[5] = Luminescence Cell-Based Dose Confirmation HTS to Identify Activators of 5'UTR Stem-Loop Driven Alpha-Synuclein mRNA Translation in H4 Neuroglioblastoma Cells. [Related pubchem assays: 1829 (Project Summary), 1814 (Primary HTS)]; format: functional
H4 = experiment: Luminescence Cell-Based Dose Response HTS to Identify Activators of 5'UTR Stem-Loop Driven Prion Protein mRNA Translation in H4 Neuroglioblastoma Cells. [Related pubchem assays: 1829 (Project Summary), 1814 (Primary HTS)]; format: functional; conditions: Homo sapiens
[6] = molecular target: T4, Heat shock factor protein 1 (Mus musculus, UniProt P38532); experiment: HSF1 potentiators in luciferase reporter cells, confirmation, cell-based, NIH3T3, luminescence, dose retest (AID 435004); format: functional;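 further: stress induced by proteasome inhibitor MG132 added 30 min after compound; luciferase reporter driven by HSF1 response element in NIH3T3 cells; actives raise luminescence as potentiators of the MG132 stress response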
T4 sequence (P38532 whole entry): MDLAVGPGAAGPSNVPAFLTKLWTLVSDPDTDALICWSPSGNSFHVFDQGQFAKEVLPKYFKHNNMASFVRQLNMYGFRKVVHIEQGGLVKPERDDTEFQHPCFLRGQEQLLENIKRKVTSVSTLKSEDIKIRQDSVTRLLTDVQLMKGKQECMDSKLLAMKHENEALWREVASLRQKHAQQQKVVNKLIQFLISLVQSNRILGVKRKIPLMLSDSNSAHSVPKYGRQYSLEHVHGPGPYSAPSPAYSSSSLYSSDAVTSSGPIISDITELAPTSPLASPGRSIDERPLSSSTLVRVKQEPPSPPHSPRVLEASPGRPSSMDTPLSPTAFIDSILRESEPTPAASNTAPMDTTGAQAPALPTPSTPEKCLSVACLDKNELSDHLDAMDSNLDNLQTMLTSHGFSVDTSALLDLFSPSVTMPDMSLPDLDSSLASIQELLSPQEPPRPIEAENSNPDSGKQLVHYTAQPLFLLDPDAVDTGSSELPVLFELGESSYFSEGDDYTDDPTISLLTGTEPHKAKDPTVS

Streptokinase A = molecular target: T5, Streptokinase A (Streptococcus pyogenes serotype M1, UniProt P10520); experiment: S. pyogenes streptokinase expression inhibitors, potency, dose response, plasminogen activation absorbance, OD405 (AID 1914); format: functional, Streptococcus pyogenes M1 GAS;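 further: secreted streptokinase activity via plasminogen activation per viability signal from cell pellet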
T5 sequence (P10520 whole entry): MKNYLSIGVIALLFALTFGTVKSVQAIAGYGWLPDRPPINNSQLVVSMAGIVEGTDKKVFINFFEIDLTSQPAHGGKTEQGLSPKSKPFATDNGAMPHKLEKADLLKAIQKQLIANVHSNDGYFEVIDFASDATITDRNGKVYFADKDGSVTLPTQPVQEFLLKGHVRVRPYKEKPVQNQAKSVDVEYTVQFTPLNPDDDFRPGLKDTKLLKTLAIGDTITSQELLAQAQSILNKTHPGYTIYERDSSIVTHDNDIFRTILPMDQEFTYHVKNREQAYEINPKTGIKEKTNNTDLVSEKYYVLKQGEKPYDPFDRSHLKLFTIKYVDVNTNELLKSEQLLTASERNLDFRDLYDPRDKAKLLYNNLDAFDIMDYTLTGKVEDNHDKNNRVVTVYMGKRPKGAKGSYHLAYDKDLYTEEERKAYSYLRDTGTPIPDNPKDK

[7] = test system: Streptococcus sp. 'group A'; experiment: growth inhibition of control SK(-) GAS strain, dose response, counter-screen for streptokinase expression inhibitor project, luminescence, kanamycin, BacTiterGlo, confirmation (AID 1900); format: functional, organism-based
Streptococcus = experiment: Group A Streptococcus viability loss, dose response, counter-screen for streptokinase expression inhibitor project, luminescence, BacTiterGlo (AID 1915); format: functional, organism-based;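 further: potency for reduction of bacterial viability or growth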
Cytochrome P450 3A4 = Cytochrome P450 3A4 (Homo sapiens, UniProt P08684);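 further: CYP3A4 tested as one member of a cytochrome P450 panel screen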
[8] = molecular target: T4, Heat shock factor protein 1; experiment: inhibition of MG132-induced HSE-luciferase signal, confirmation, cell-based, NIH3T3, luminescence, dose retest (AID 2382); format: functional;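 further: NIH3T3 fibroblasts with HSF1-driven luciferase reporter stressed by proteasome inhibitor MG132; luminescence from HSF1-driven luciferase expression after 8 hours of MG132 stress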

Sequence of Cytochrome P450 2C19 (P33261 whole entry): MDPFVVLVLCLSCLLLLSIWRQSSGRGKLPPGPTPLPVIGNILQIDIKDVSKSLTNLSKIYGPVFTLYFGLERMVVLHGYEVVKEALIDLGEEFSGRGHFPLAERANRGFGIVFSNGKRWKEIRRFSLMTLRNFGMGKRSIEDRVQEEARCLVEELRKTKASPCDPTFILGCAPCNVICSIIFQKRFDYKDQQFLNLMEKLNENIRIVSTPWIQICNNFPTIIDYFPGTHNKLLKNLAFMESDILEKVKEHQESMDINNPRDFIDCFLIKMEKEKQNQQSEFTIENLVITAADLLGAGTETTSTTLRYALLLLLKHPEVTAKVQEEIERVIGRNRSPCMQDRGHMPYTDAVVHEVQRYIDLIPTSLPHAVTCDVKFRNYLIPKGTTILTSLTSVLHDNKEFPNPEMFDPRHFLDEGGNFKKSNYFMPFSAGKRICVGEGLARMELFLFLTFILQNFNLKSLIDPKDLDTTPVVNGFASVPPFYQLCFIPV
Sequence of Cytochrome P450 2C9 (P11712 whole entry): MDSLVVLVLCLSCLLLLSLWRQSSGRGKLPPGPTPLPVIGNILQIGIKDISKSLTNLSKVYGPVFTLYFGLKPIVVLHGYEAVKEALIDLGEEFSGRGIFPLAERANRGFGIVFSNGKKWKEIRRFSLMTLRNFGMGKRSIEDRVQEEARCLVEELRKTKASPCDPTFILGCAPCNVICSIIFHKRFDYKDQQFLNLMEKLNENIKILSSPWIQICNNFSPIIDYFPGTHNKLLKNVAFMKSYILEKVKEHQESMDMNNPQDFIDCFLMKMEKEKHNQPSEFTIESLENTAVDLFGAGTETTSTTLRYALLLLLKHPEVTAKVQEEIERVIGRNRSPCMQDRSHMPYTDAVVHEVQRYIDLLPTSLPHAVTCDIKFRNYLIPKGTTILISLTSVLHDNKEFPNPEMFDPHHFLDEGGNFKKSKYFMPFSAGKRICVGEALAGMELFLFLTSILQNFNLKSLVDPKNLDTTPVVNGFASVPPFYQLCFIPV
Sequence of Cytochrome P450 3A4 (P08684 whole entry): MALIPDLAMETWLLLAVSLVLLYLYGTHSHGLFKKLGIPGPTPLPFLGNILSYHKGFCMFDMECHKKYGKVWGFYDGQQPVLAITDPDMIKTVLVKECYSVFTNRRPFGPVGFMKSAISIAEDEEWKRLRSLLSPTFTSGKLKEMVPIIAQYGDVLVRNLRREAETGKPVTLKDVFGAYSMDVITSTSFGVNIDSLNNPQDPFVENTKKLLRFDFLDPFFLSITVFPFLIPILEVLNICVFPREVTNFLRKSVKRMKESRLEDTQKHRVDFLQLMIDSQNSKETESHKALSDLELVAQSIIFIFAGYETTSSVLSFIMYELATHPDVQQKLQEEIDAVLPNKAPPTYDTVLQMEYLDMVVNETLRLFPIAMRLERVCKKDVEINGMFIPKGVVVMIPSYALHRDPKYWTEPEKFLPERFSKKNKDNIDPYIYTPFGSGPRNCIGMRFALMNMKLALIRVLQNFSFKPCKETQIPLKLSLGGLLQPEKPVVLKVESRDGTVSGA

Cc1nn(C)cc1C(=O)NN=C(S)Nc1ccccc1
AC50 (Cytochrome P450 1A2): 15.8 µM (inconclusive) | AC50 (Cytochrome P450 2C9): 39.8 µM (inconclusive) | AC50 (Cytochrome P450 2C19): 22.4 µM (inconclusive)

COc1ccc(NS(=O)(=O)c2ccc(NC(=O)c3cnn4c(C(F)F)cc(-c5ccc(C)cc5)nc34)cc2)cc1
AC50 (Cytochrome P450 1A2): 0.891 µM (inconclusive) | AC50 (Cytochrome P450 2C9): 3.55 µM (inconclusive) | AC50 (Cytochrome P450 2C19): 2.24 µM (inconclusive)

Cc1ccc(N/C([S-])=C(/C(=O)c2ccc(F)cc2)[n+]2ccccc2)cc1
EC50 (Protein RecA): 69.7 µM (active) | AC50 [1]: > 380 µM (inactive)

Cc1ccc(-c2csc(NC(=O)CSc3n[nH]c4c5ccccc5nc-4n3)n2)cc1
EC50 [2]: 24.1 µM (active) | EC50 [3]: 21.9 µM (active)

Cc1ccc(Cn2ccnc2C(=O)Nc2ccccc2)cc1
EC50 [4]: 58 µM (active) | EC50 [5]: 30.4 µM (active)

Cc1nc2ccccc2c(=O)n1-c1ccc(Br)cn1
EC50 (H4): > 120 µM (not active) | EC50 [4]: > 120 µM (not active) | EC50 [5]: > 120 µM (not active)

CCCn1c(SCc2nc(O)c3c(C)c(C)sc3n2)nc2ccccc2c1=O
EC50 [6]: 71.9 µM (active) | EC50 [2]: 11.8 µM (active) | EC50 [3]: 12.5 µM (active)

CCCCNC(=O)Cn1nc([N+](=O)[O-])c([N+](=O)[O-])c1C
EC50 (H4): 35.2 µM (active) | EC50 [4]: 11.1 µM (active) | EC50 [5]: > 120 µM (not active)

COc1cccc(-c2cc(C(F)(F)F)nc(N3CCCCC3)n2)c1
EC50 (Streptokinase A): 4.92 µM (active) | EC50 [7]: 5.13 µM (active) | AC50 (Cytochrome P450 2C9): 0.355 µM (inconclusive) | EC50 (Streptococcus): 19 µM (active) | AC50 (Cytochrome P450 3A4): 20 µM (inconclusive)

O=C(O)c1ccc(Cn2cnc3scc(-c4ccccc4)c3c2=O)cc1
EC50 (H4): > 120 µM (not active) | EC50 [4]: > 120 µM (not active) | EC50 [5]: 9.7 µM (active)

Cn1c(SCC(=O)N2CCCCC2)nc2c3ccccc3nc-2c1O
EC50 [2]: 22.3 µM (active) | EC50 [3]: 35.8 µM (active)

Cc1ccc(C(C(=O)NC2CCCC2)N(C(=O)Cc2cccs2)c2ccc3c(c2)OCCO3)cc1 (centres undefined)
EC50 [2]: 46.5 µM (active) | EC50 [3]: 62.8 µM (active)

COc1ccc(C(CCN(Cc2ccc(OC)c(OC)c2)C(=O)CCl)c2ccccc2)cc1 (centres undefined)
EC50 (Protein RecA): 0.269 µM (active) | EC50 [8]: 3.19 µM (active) | EC50 [2]: 3.07 µM (active) | EC50 [3]: 3 µM (active) | AC50 [1]: 1.12 µM (active)

Cc1cccc(N=Nc2c[nH]nc2-c2ccco2)c1
EC50 (H4): 73.5 µM (active) | EC50 [4]: 14.7 µM (active) | EC50 [5]: 29.5 µM (active)

COCCn1c(=O)c(-c2cc(F)cc(F)c2)nc2cnc(OC)nc21
AC50 (Cytochrome P450 2C9): 39.8 µM (inconclusive) | AC50 (Cytochrome P450 2C19): 39.8 µM (inconclusive)

Cc1cc(C)nc(Sc2ccc3nnnn3n2)n1
EC50 (H4): 11.3 µM (active) | EC50 [4]: 22.5 µM (active) | EC50 [5]: 24.7 µM (active)

Cc1ccccc1N(C(=O)Cc1cccs1)C(C(=O)NCC1CCCO1)c1cccnc1 (centres undefined)
AC50 (Cytochrome P450 2C9): 22.4 µM (inconclusive) | AC50 (Cytochrome P450 3A4): 1 µM (inconclusive) | AC50 (Cytochrome P450 2C19): 28.2 µM (inconclusive)

Cc1ccc(NC2=C(C(=O)Nc3c(C)cc(C)cc3C)C(=N)C(C(=O)Nc3ccc(OC(F)(F)F)cc3)S2)cc1 (centres undefined)
EC50 [2]: 40 µM (active) | EC50 [3]: 42.8 µM (active)

CCOC(=O)C/C(C)=N/NC(=O)COc1ccccc1C
EC50 (Protein RecA): 2.36 µM (active) | AC50 [1]: 4.39 µM (active)

COc1ccc(/N=C2/C(=N\c3ccc(OC)cc3)N(c3ccccc3)C(=S)N2C(=O)c2ccc(Cl)cc2)cc1
EC50 (H4): 18.7 µM (active) | EC50 [4]: 47.3 µM (active) | EC50 [5]: 41.1 µM (active)

NC(=O)CI [IODOACETAMIDE]
AC50 (Cytochrome P450 1A2): 31.6 µM (inconclusive) | AC50 (Cytochrome P450 2C9): 39.8 µM (inconclusive) | AC50 (Cytochrome P450 2C19): 39.8 µM (inconclusive)
